This experiment has as its target Nuclear receptor subfamily 1 group D member 1 (Homo sapiens) (UniProt P20393). Kind of experiment: Rev-erbα–DNA interaction modulators – biochemical, FITC-DNA, fluorescence polarization, dose response (AID 1259321). Particulars: Rev-erb alpha-FITC-DNA binding. On the technique in general: In fluorescence polarisation assays a small probe gives low polarisation when free and higher when bound to something large.

Calls of active or inactive are those of the source.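 The calls were made as follows: active = half-maximal concentration for changing protein binding to DNA, from the fitted dose curve, below 10 micromolar; inactive = the rest.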 Where only a bound is given, the exact number is not on record here.

95 compounds from PubChem BioAssay AID1259321 (Sanford-Burnham Center for Chemical Genomics, 2017) can be followed below.

Usually IC50 stands for the concentration needed to halve the response being measured.

Chain of Nuclear receptor subfamily 1 group D member 1 (Homo sapiens) (P20393 whole entry, looked up): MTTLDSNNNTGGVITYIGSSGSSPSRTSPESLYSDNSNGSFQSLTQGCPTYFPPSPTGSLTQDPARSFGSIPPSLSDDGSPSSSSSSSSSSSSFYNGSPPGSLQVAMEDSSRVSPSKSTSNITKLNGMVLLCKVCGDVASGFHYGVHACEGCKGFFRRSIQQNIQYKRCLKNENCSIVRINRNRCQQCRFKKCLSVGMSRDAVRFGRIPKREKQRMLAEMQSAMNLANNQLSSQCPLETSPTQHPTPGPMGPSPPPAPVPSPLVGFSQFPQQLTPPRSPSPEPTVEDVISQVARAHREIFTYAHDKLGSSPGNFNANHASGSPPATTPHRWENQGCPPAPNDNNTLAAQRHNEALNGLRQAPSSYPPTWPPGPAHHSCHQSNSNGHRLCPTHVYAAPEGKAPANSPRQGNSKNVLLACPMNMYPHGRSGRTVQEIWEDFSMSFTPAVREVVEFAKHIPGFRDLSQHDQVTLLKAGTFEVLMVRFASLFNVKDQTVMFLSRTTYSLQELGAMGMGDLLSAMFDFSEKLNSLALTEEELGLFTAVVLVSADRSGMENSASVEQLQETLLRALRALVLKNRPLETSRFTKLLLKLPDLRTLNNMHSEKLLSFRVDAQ

As for `COc1cc(OC)cc(-c2c(Sc3ccccc3)c3cc(-c4ccc(OC)c(F)c4)ccc3n2C)c1`, the IC50 was 1.33 µM. For the compound `O=C1NC(=O)c2c(Br)c(Br)c(Br)c(Br)c21`, the IC50 was 1.48 µM. Consider `O=C(CSc1nc2c(c(C(F)(F)F)n1)CCc1ccccc1-2)NCc1ccccc1`, for which the IC50 is 4.21 µM. For the compound `Cc1ccc(Oc2nccc(-c3ccc(Cl)cc3)n2)cc1`, the IC50 is 7.31 µM. With `COc1nc(-c2ccccc2)ccc1-c1noc(-c2cccs2)n1`, the IC50 was > 40 µM (inactive).

Consider `O=c1[nH]c(Cc2ccc(F)cc2)nc2scc(-c3ccc(F)cc3)c12`, for which the IC50 was 9.5 µM. Consider `Cc1nn(-c2ccc(Cl)cc2)c2sc(C(=O)c3c(N)n(C)c(=O)n(C)c3=O)cc12`, for which the IC50 is 8.34 µM. Consider `C=CCn1cc(/C=C/c2cc[n+](C)cc2)c2ccccc21`, for which the IC50 was > 40 µM (inactive). Turning to `CC1(C)Cc2c(sc3c2c(N)nc(=S)n3Cc2ccccc2)CO1`, the IC50 entry is “inactive”.

As for `Cc1[nH]nc2nc(SCC(=O)NC3CCCCC3)n(-c3ccc(Br)cc3)c(=N)c12`, the IC50 was 5.74 µM. On to `Cc1nn(C)cc1N1C(=O)c2cccc3c(N)ccc(c23)C1=O`, for which the IC50 result is “inactive”.

On to `CNc1ccc2c3c(cccc13)C(=O)N(C)C2=O`, for which the IC50 is 4.6 µM. The value for `N#C/C(=C(/O)C(Cl)c1ccccc1)c1nc2ccccc2s1` (stereo not given) was 5.7 µM; that for `N#Cc1c(N)nc2c3c(sc(=N)c2c1N)NC(=O)CC3c1c(F)cccc1Cl` (stereo not given) was 0.78 µM.

Take `Cn1c(N)c(C(=O)CSc2nn(-c3ccc(F)cc3)c(=S)s2)c(=O)n(C)c1=O`: the IC50 was > 40 µM (inactive). The value for `Oc1ccc2ccc3cccc[n+]3c2c1` was > 40 µM (inactive); that for `COc1ccccc1C(=O)Nc1nc2ccccc2s1` was 5.23 µM; that for `Cc1nc(SCC(=O)NCc2ccccc2)c2oc3ccccc3c2n1` was 4.18 µM. Take `O=C(Cc1ccc(Cl)cc1)c1c[nH]c(C(=O)NCc2cccnc2)c1`: the IC50 was 2.51 µM. With `Cc1cccc2cc(C#N)c(SCC(=O)NCc3cccs3)nc12`, the IC50 is 9.79 µM.

With `Cc1cc2c(s1)c1cnn(Cc3c(Cl)ccc(C)c3F)c(=O)c1n2C`, the IC50 result was “inactive”.

On to `COc1ccc(Cl)cc1-c1cc(C(=O)Nc2ccc(F)cc2)[nH]n1`, for which the IC50 was 3.13 µM.

`COC(=O)c1cccc(Cn2ccc3ccc(-c4ccc5ccn(C(=O)c6ccccc6C)c5c4)cc32)c1`: the concentration for half-maximal inhibition (IC50) was 2.94 µM. On to `CN(C)c1ccc(N=Nc2ccccc2C(=O)OCC(=O)N2CCCC2)cc1`, for which the IC50 was 0.527 µM. In the case of `COc1ccc(CCNC(=O)CSc2nc(-c3ccc(OC)c(OC)c3)ccc2C#N)cc1`, the IC50 entry is “inactive”. The value for `COc1ccc(/C=C2\SC(=S)N(CCCC(=O)NC3CCCC3)C2=O)cc1OC` was > 40 µM (inactive); that for `CCC(C)OC(=O)c1cc(C)nc2c(Br)cc(Br)cc12` (stereo not given) was 7.65 µM.

In the case of `COc1ccc(-c2nc(-c3cccs3)c(-c3cccs3)[nH]2)cc1OC`, the IC50 was 5.77 µM.

On to `COc1ccc2c(C)cc(SCC(=O)NC3CCCCC3)nc2c1`, for which the IC50 is > 40 µM (inactive).

Consider `Cc1cc(-c2nnc3sc(-c4ccc(Cl)cc4Cl)nn23)n[nH]1`, for which the IC50 is > 40 µM (inactive).

For the compound `Cc1cccc(N2CCN(c3ccc4cc(S(=O)(=O)N5CCCCC5)ccc4n3)CC2C)c1` (stereo not given), the IC50 is 4.89 µM.

`Cc1nn(C)c(C)c1NC(=O)CSc1nc(-c2ccccc2F)nc2c1cnn2-c1ccccc1`: the IC50 was 3.21 µM. `O=C(COC(=O)c1cccnc1SCC(=O)NCc1ccccc1)NCc1ccccc1`: the IC50 is 4.11 µM. Consider `COc1ccc(NC(=O)CSc2nc3ccccc3c(=O)n2-c2ccc3c(c2)OCO3)c(OC)c1`, for which the IC50 is > 40 µM (inactive).

As for `C#CCn1c(=NC(=O)c2ccc(Br)s2)sc2cccc(OC)c21`, the IC50 is 2.4 µM. In the case of `CCC(=O)N=c1sc2c(OC)ccc(OC)c2n1C`, the IC50 is 2.98 µM. In the case of `CCCCCC[n+]1ccccc1/C=C/c1ccc(N(C)C)cc1`, the IC50 was 7.24 µM. The figure for `O=C(c1ccccc1)N1N=C(c2ccccc2O)CC1c1ccccc1` (stereo not given) is 2.32 µM; for `Cc1ccc(-n2c(SCC(=O)Nc3cccc(S(=O)(=O)NC4=NCCCCC4)c3)nc3ccccc3c2=O)cc1` it is “inactive”. In the case of `COc1ccc(-n2nc(C(=O)NCC(=O)Nc3cc(Cl)c(OC)cc3OC)c3ccccc3c2=O)cc1`, the IC50 result was “inactive”. The value for `CCN(CC)c1ccc2cc(C(=O)NCc3ccc(F)cc3)c(=N)oc2c1` was “inactive”; that for `CCN1C(=O)CSC1=NC1C2CC3CC(C2)CC1C3` (stereo not given) was 4.66 µM.

Regarding `COc1ccc(-c2ccc3sc4ccccc4c(=O)c3c2)cn1`, the IC50 was 3.24 µM. Take `Cn1nnnc1-c1cc(Br)ccc1NC(=O)c1ccccc1`: the IC50 result was “inactive”. On to `Cc1cc(C)c(NC(=O)CSc2nc3ncc(Br)cc3[nH]2)c(Cl)c1`, for which the IC50 was 6.22 µM.

For the compound `CCCCCc1nc2c(c(=O)c3ccccc3n2C)c(=O)n1Cc1ccc(OC)cc1`, the IC50 was 2.96 µM. As for `Cc1cc(=O)oc2cc(NC(=O)c3cccc(F)c3)ccc12`, the IC50 is 1.02 µM. On to `CCc1cc2cc(C(=O)Nc3ccc(F)cc3)sc2s1`, for which the IC50 was 7.03 µM. Take `Cc1cc(N2CCCC2)ccc1/C=C1\NC(=S)N(C)C1=O`: the IC50 entry was “inactive”. Take `COc1ccc(Cc2nc3ccccc3n2CC(=O)N/N=C/c2ccc(C)cc2O)cc1OC`: the IC50 was 5.85 µM. The figure for `CSc1nnc2c3cc(F)ccc3n(Cc3ccccc3)c2n1` is 7.93 µM; for `CCCN1C(=O)c2cccc3c(N4CCCCC4)ccc(c23)C1=O` it is 8.14 µM. On to `CCN1/C(=C/c2ccc3cccc(C)c3[n+]2CC)Sc2ccccc21`, for which the IC50 is 2.04 µM. The value for `Cc1cc(-c2ccccc2)nc2oc3c(c12)NC(=O)CN(c1ccccc1)C3=O` was 0.378 µM; that for `CC(C)CCSc1nc(N)c(C#N)cc1C#N` was 2.17 µM. In the case of `Cc1cc(NC(=O)CSc2nc3c(C)ccc(C)c3cc2C#N)no1`, the IC50 is 3.19 µM. For `Cc1ccc(S(=O)(=O)c2nnn3c2nc(N2CCN(c4ccccn4)CC2)c2ccccc23)cc1C`, the IC50 is 3.36 µM. The value for `COC(=O)c1cccc(Cn2ccc3ccc(-c4ccc5ccn(C(=O)c6ccccc6OC)c5c4)cc32)c1` was 0.91 µM; that for `COc1ccc(C(=O)NC(=S)Nc2ccc3[nH]c(=O)[nH]c3c2)c(OC)c1` was > 40 µM (inactive); that for `Cc1onc(-c2ccccc2)c1C(=O)Nc1nc(-c2cc(F)ccc2F)cs1` was 4.24 µM.

Consider `Cc1c(Cl)ccc2c(C(N)=O)cc(-c3ccccn3)nc12`, for which the IC50 was 5.97 µM.

With `COc1ccc(Cn2ccc3ccc(-c4ccc5ccn(C(=O)c6ccccc6OC)c5c4)cc32)cc1`, the IC50 was > 40 µM (inactive). Turning to `Cn1c(SCC(=O)NCc2ccc3c(c2)OCO3)ncc(C(=O)Nc2ccc(F)cc2)c1=O`, the IC50 was 3.91 µM. Take `Cc1ccc2cc(C#N)c(SCC(=O)N3CCCc4ccccc43)nc2c1`: the IC50 was 6.5 µM. Turning to `N#Cc1c(N)nc(SCC(=O)NCCc2ccccc2)c(C#N)c1-c1cccs1`, the IC50 was 1.31 µM. Consider `CCOC(=O)c1nn(-c2ccc(Cl)cc2)c2nc(-c3ccc(C)cc3)c(C#N)c(=O)n12`, for which the IC50 was 2 µM. For `CCN1C(=O)c2cccc3c(N)ccc(c23)C1=O`, the IC50 is > 40 µM (inactive).

As to `O=C(COC(=O)c1cc(Br)ccc1O)Nc1cccnc1Cl`, the IC50 was 2.58 µM.

For `COc1ccc2cc(C(=O)COC(=O)COc3ccc4c(C)cc(=O)oc4c3)ccc2c1`, the IC50 is 4.26 µM. On to `Cc1ccc2[nH]c(C)c(/C=C/c3cc[n+](C)cc3)c2c1`, for which the IC50 is 8.6 µM.

Take `CCc1cc2cc(C)ccc2nc1SCC(=O)NC1CCCC1`: the concentration for half-maximal inhibition (IC50) is 3.66 µM.

With `COc1ccc2c(C)cc(SCC(=O)Nc3cccnc3Cl)nc2c1`, the IC50 is > 40 µM (inactive). For `CCN(c1cccc(C)c1)S(=O)(=O)c1cc2c3c(c1)CCC(=O)N3CCC2`, the IC50 entry was “inactive”.

Turning to `CC(C)Cc1nc2sc3c(SCC(N)=O)ncnc3c2c2c1CCC2`, the IC50 is 3.65 µM. The value for `Cn1c(=O)c(NCCc2ccccc2)c2c3c(cccc31)C(=O)c1ccccc1-2` was “inactive”. Take `O=C(CCn1c(=O)c2cccn2c2cccnc21)NCc1cccc(Cl)c1`: the IC50 was > 40 µM (inactive).

As for `COC(=O)c1ccc2nc(Nc3nc4c(F)cc(F)cc4s3)sc2c1`, the IC50 was 2.14 µM. For `O=C(CSc1ncnc2c1oc1ccccc12)c1cccs1`, the IC50 is 6.36 µM. For `CCn1c(=NC(=O)c2ccc(N3C(=O)CCC3=O)cc2)sc2c(OC)ccc(OC)c21`, the IC50 was 2.63 µM.

In the case of `O=C1c2cccc3c(O)ccc(c23)C(=O)N1Cc1ccco1`, the IC50 entry was “inactive”. As to `COc1ccc2nc(SCC(=O)Nc3ccc(S(=O)(=O)N4CCCC4)cc3)c(C#N)cc2c1`, the IC50 result was “inactive”. The entry for `Cc1ccc(S(=O)(=O)c2nc(Nc3ccccc3C#N)sc2Cl)cc1` is “inactive”; for `Cc1ccc(C)c2nc(SCC(=O)N3CCCc4ccccc43)c(C#N)cc12` it is 6.12 µM. Take `COc1ccc(Br)cc1-c1nc2c(c(=O)[nH]c(=O)n2Cc2ccccc2)n1C`: the IC50 entry is “inactive”. Take `COc1ccc(-c2cc(-c3cccnc3)c(C#N)c(N)n2)cc1`: the IC50 is 4.4 µM. `COc1ccc(-c2c(C)nc3c(-c4ccsc4)cnn3c2N)cc1`: the IC50 is 9.42 µM. Consider `COc1ccc(-c2cc(-c3ccc(OC)cc3)c(C#N)c(SC)n2)cc1`, for which the IC50 was 8.29 µM. In the case of `O=C(Cc1sc(-c2ccccc2)nc1-c1ccccc1)Nc1ccc(Cl)cc1`, the IC50 is 3.2 µM. In the case of `Cc1nonc1NC(=O)CSc1nc2ccccc2cc1C#N`, the IC50 result was “inactive”. Regarding `CCOC(=O)c1c(NC(=O)CSc2nc3ccccc3s2)sc(C(C)=O)c1C`, the IC50 result was “inactive”. `Cc1ccc2cc(-c3noc(C4CCCCC4)n3)c(=O)[nH]c2c1`: the IC50 entry is “inactive”. Turning to `COc1ccc2c(Cl)c(-c3nnc(SCC(=O)c4ccccc4)n3C)sc2c1`, the IC50 is 3.42 µM. Consider `O=C(Cn1cc(C(F)(F)F)cc(Cl)c1=O)NCc1ccc(Cl)cc1Cl`, for which the IC50 entry was “inactive”. As for `O=[N+]([O-])c1ccc(N2CCCCCC2)c2nonc12`, the IC50 was > 40 µM (inactive). As to `CSc1ccc(CCNC(=O)c2cc(-c3ccccc3)c(N3CCOCC3)s2)cc1`, the IC50 is 2.74 µM.
